Numbers after ± are expanded uncertainties.
Assays:
[1] = xn = mol fraction of the nth substance listed; conditions: 298.15 K, 101 kPa, Liquid, Vibrating tube method
[2] = excess molar enthalpy (molar enthalpy of mixing); xn = mol fraction of the nth substance listed; conditions: 298.15 K, 101 kPa, Liquid, Calvet calorimetry

BrCCCCCBr [1,5-dibromopentane] + CCCCOC=O
Conditions | excess molar enthalpy [kcal/mol] | mass density [kg/m3]
[1], x2 = 0.0756 | – | 1642.01 ± 0.82
[1], x2 = 0.1366 | – | 1599.08 ± 0.77
[1], x2 = 0.2027 | – | 1551.59 ± 0.73
[1], x2 = 0.2682 | – | 1503.58 ± 0.68
[1], x2 = 0.3259 | – | 1460.47 ± 0.64
[1], x2 = 0.3871 | – | 1413.8 ± 0.59
[1], x2 = 0.4492 | – | 1365.54 ± 0.55
[1], x2 = 0.5143 | – | 1313.85 ± 0.5
[1], x2 = 0.5679 | – | 1270.35 ± 0.46
[1], x2 = 0.6274 | – | 1221.19 ± 0.42
[1], x2 = 0.687 | – | 1170.94 ± 0.38
[1], x2 = 0.7958 | – | 1076.48 ± 0.3
[1], x2 = 0.8434 | – | 1033.97 ± 0.27
[1], x2 = 0.9499 | – | 936.18 ± 0.25
[2], x2 = 0.0868 | 0.0232 ± 0.000478 | –
[2], x2 = 0.1853 | 0.0394 ± 0.000956 | –
[2], x2 = 0.2872 | 0.0531 ± 0.0012 | –
[2], x2 = 0.3842 | 0.0598 ± 0.00143 | –
[2], x2 = 0.4656 | 0.0605 ± 0.00143 | –
[2], x2 = 0.5328 | 0.0578 ± 0.0012 | –
[2], x2 = 0.5803 | 0.0557 ± 0.0012 | –
[2], x2 = 0.6291 | 0.0521 ± 0.0012 | –
[2], x2 = 0.7084 | 0.0447 ± 0.000956 | –
[2], x2 = 0.7902 | 0.0332 ± 0.000717 | –
[2], x2 = 0.8713 | 0.0215 ± 0.000478 | –
[2], x2 = 0.9437 | 0.0112 ± 0.000478 | –

BrCCCCCCBr [1,6-dibromohexane] + CCCCOC=O
Conditions | excess molar enthalpy [kcal/mol] | mass density [kg/m3]
[1], x2 = 0.0793 | – | 1558.23 ± 0.73
[1], x2 = 0.1555 | – | 1514.85 ± 0.69
[1], x2 = 0.2238 | – | 1474.51 ± 0.65
[1], x2 = 0.2952 | – | 1430.8 ± 0.61
[1], x2 = 0.3567 | – | 1391.77 ± 0.57
[1], x2 = 0.4201 | – | 1350.14 ± 0.53
[1], x2 = 0.4813 | – | 1308.59 ± 0.5
[1], x2 = 0.5983 | – | 1224.92 ± 0.42
[1], x2 = 0.6603 | – | 1178.22 ± 0.38
[1], x2 = 0.7628 | – | 1097.17 ± 0.32
[1], x2 = 0.8097 | – | 1058.36 ± 0.29
[1], x2 = 0.854 | – | 1020.74 ± 0.26
[1], x2 = 0.9078 | – | 973.55 ± 0.25
[2], x2 = 0.0858 | 0.0241 ± 0.000717 | –
[2], x2 = 0.1844 | 0.0413 ± 0.000956 | –
[2], x2 = 0.2879 | 0.0566 ± 0.0012 | –
[2], x2 = 0.3755 | 0.0655 ± 0.00143 | –
[2], x2 = 0.4521 | 0.0686 ± 0.00143 | –
[2], x2 = 0.5188 | 0.0674 ± 0.00143 | –
[2], x2 = 0.6009 | 0.0636 ± 0.00143 | –
[2], x2 = 0.6581 | 0.0583 ± 0.0012 | –
[2], x2 = 0.7307 | 0.0497 ± 0.0012 | –
[2], x2 = 0.8078 | 0.0375 ± 0.000956 | –
[2], x2 = 0.8827 | 0.0246 ± 0.000717 | –
[2], x2 = 0.9487 | 0.0134 ± 0.000478 | –

CCCCOC(=O)CCC [butyl butanoate] + BrCCCCCBr
Conditions | excess molar enthalpy [kcal/mol] | mass density [kg/m3]
[1], x1 = 0.0517 | – | 1642.59 ± 0.82
[1], x1 = 0.1033 | – | 1591.9 ± 0.77
[1], x1 = 0.1521 | – | 1545.03 ± 0.72
[1], x1 = 0.2029 | – | 1497.33 ± 0.68
[1], x1 = 0.2545 | – | 1449.85 ± 0.63
[1], x1 = 0.3101 | – | 1399.96 ± 0.58
[1], x1 = 0.3663 | – | 1350.58 ± 0.54
[1], x1 = 0.4214 | – | 1303.32 ± 0.49
[1], x1 = 0.478 | – | 1255.87 ± 0.45
[1], x1 = 0.6053 | – | 1153.05 ± 0.36
[1], x1 = 0.6591 | – | 1111.13 ± 0.33
[1], x1 = 0.7254 | – | 1060.71 ± 0.29
[1], x1 = 0.7885 | – | 1013.92 ± 0.25
[1], x1 = 0.8577 | – | 963.85 ± 0.24
[1], x1 = 0.9262 | – | 915.51 ± 0.24
[2], x1 = 0.0642 | 0.00645 ± 0.000239 | –
[2], x1 = 0.1447 | 0.0108 ± 0.000239 | –
[2], x1 = 0.2305 | 0.012 ± 0.000478 | –
[2], x1 = 0.3193 | 0.00956 ± 0.000239 | –
[2], x1 = 0.3711 | 0.00621 ± 0.000239 | –
[2], x1 = 0.3957 | 0.0043 ± 0.000239 | –
[2], x1 = 0.4159 | 0.000956 ± 0.000239 | –
[2], x1 = 0.4621 | -0.00359 ± 0.000239 | –
[2], x1 = 0.4668 | -0.00478 ± 0.000239 | –
[2], x1 = 0.5278 | -0.00932 ± 0.000239 | –
[2], x1 = 0.6041 | -0.0115 ± 0.000478 | –
[2], x1 = 0.6965 | -0.0129 ± 0.000478 | –
[2], x1 = 0.806 | -0.0115 ± 0.000478 | –
[2], x1 = 0.9138 | -0.00693 ± 0.000239 | –

CCCCOC(=O)CCC [butyl butanoate] + BrCCCCBr
Conditions | excess molar enthalpy [kcal/mol] | mass density [kg/m3]
[1], x1 = 0.0459 | – | 1757.74 ± 0.95
[1], x1 = 0.1377 | – | 1643.47 ± 0.83
[1], x1 = 0.1788 | – | 1594.83 ± 0.78
[1], x1 = 0.2814 | – | 1479.86 ± 0.66
[1], x1 = 0.3346 | – | 1423.4 ± 0.61
[1], x1 = 0.3891 | – | 1367.86 ± 0.55
[1], x1 = 0.5003 | – | 1260.78 ± 0.46
[1], x1 = 0.5704 | – | 1197.33 ± 0.4
[1], x1 = 0.6285 | – | 1146.9 ± 0.36
[1], x1 = 0.7046 | – | 1083.68 ± 0.31
[1], x1 = 0.7684 | – | 1032.96 ± 0.27
[1], x1 = 0.8513 | – | 970.06 ± 0.24
[1], x1 = 0.9156 | – | 923.4 ± 0.24
[2], x1 = 0.0526 | 0.00645 ± 0.000239 | –
[2], x1 = 0.1195 | 0.0117 ± 0.000478 | –
[2], x1 = 0.1947 | 0.0139 ± 0.000478 | –
[2], x1 = 0.2716 | 0.0117 ± 0.000478 | –
[2], x1 = 0.3471 | 0.0055 ± 0.000239 | –
[2], x1 = 0.4134 | -0.00263 ± 0.000239 | –
[2], x1 = 0.471 | -0.0117 ± 0.000478 | –
[2], x1 = 0.5005 | -0.0155 ± 0.000478 | –
[2], x1 = 0.579 | -0.0206 ± 0.000478 | –
[2], x1 = 0.6761 | -0.0222 ± 0.000478 | –
[2], x1 = 0.7901 | -0.0196 ± 0.000478 | –
[2], x1 = 0.9017 | -0.0122 ± 0.000478 | –

Reference: the NIST ThermoML archive (doi:10.1016/j.jct.2009.05.006)
